According to ChEMBL document CHEMBL1201862, “PubChem BioAssay data set” (2004):
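Protocol summary: plate cells (96-well), add compound at 5 concentrations, incubate 48 h, interpolate endpoints linearly. The concentration for 50% growth inhibition is given as GI50.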 Calls of active or inactive are those of the source. No stated cut-off is given here; in the data, active = GI50 up to about 1.1 µM and inactive = higher.

What was measured:
Assay in all cases: inhibition of tumour cell growth, NCI panel, 48 h
[1] = test system: 786-0
[2] = test system: A498
[3] = test system: A549
[4] = test system: ACHN
[5] = test system: CAKI-1
[6] = test system: CCRF-CEM
[7] = test system: COLO 205
[8] = test system: DMS-114
[9] = test system: DMS-273
[10] = test system: EKVX
[11] = test system: HCC 2998
[12] = test system: HCT-116
[13] = test system: HCT-15
[14] = test system: HL-60
[15] = test system: HOP-18
[16] = test system: HOP-62
[17] = test system: HOP-92
[18] = test system: HT-29
[19] = test system: IGROV-1
[20] = test system: K562
[21] = test system: KM-20L2
[22] = test system: KM12
[23] = test system: LOX IMVI
[24] = test system: LXFL 529
[25] = test system: M14
[26] = test system: M19-MEL
[27] = test system: MOLT-4
[28] = test system: Malme-3M
[29] = test system: NCI-H226
[30] = test system: NCI-H23
[31] = test system: NCI-H460
[32] = test system: NCI-H522
[33] = test system: OVCAR-3
[34] = test system: OVCAR-4
[35] = test system: OVCAR-5
[36] = test system: OVCAR-8
[37] = test system: RPMI-8226
[38] = test system: RXF 393
[39] = test system: SF-268
[40] = test system: SF-295
[41] = test system: SF-539
[42] = test system: SK-MEL-28
[43] = test system: SK-MEL-2
[44] = test system: SK-MEL-5
[45] = test system: SK-OV-3
[46] = test system: SN12C
[47] = test system: SNB-19
[48] = test system: SNB-75
[49] = test system: SNB-78
[50] = test system: SR
[51] = test system: SW-620
[52] = test system: TK-10
[53] = test system: U-251
[54] = test system: UACC-257
[55] = test system: UACC-62
[56] = test system: UO-31
[57] = test system: XF498
[58] = test system: DLD-1

## Cc1ccc(S(=O)(=O)Nc2cccc3c(=O)nc[nH]c23)cc1
[1]
  GI50: > 100 µM (inactive)
[2]
  GI50: > 100 µM (inactive)
[3]
  GI50: 72.8 µM (inactive)
[4]
  GI50: 66.8 µM (inactive)
[5]
  GI50: > 100 µM (inactive)
[6]
  GI50: 37.2 µM (inactive)
[7]
  GI50: > 100 µM (inactive)
[8]
  GI50: 31.2 µM (inactive)
[9]
  GI50: > 100 µM (inactive)
[10]
  GI50: > 100 µM (inactive)
[11]
  GI50: > 82 µM (inactive)
[12]
  GI50: 99.3 µM (inactive)
[13]
  GI50: 61.5 µM
[14]
  GI50: 23.3 µM (inactive)
[15]
  GI50: 53 µM (inactive)
[16]
  GI50: > 100 µM (inactive)
[17]
  GI50: > 39.6 µM (inactive)
[18]
  GI50: > 100 µM (inactive)
[19]
  GI50: > 100 µM (inactive)
[20]
  GI50: 43.6 µM (inactive)
[21]
  GI50: > 100 µM (inactive)
[22]
  GI50: > 100 µM (inactive)
[23]
  GI50: 96.6 µM (inactive)
[24]
  GI50: > 86.7 µM (inactive)
[25]
  GI50: > 100 µM (inactive)
[26]
  GI50: > 100 µM (inactive)
[27]
  GI50: 34.3 µM (inactive)
[28]
  GI50: > 100 µM (inactive)
[29]
  GI50: > 94.6 µM (inactive)
[30]
  GI50: 90.8 µM (inactive)
[31]
  GI50: > 100 µM (inactive)
[32]
  GI50: 76.6 µM (inactive)
[33]
  GI50: > 100 µM (inactive)
[34]
  GI50: > 100 µM (inactive)
[35]
  GI50: > 100 µM (inactive)
[36]
  GI50: > 100 µM (inactive)
[37]
  GI50: 17.8 µM (inactive)
[38]
  GI50: > 65.3 µM (inactive)
[39]
  GI50: > 100 µM (inactive)
[40]
  GI50: 82.6 µM (inactive)
[41]
  GI50: > 100 µM (inactive)
[42]
  GI50: > 100 µM (inactive)
[43]
  GI50: > 100 µM (inactive)
[44]
  GI50: 43.9 µM (inactive)
[45]
  GI50: > 100 µM (inactive)
[46]
  GI50: > 100 µM (inactive)
[47]
  GI50: > 100 µM (inactive)
[48]
  GI50: > 51.1 µM (inactive)
[49]
  GI50: > 100 µM (inactive)
[50]
  GI50: 10.7 µM (inactive)
[51]
  GI50: > 100 µM (inactive)
[52]
  GI50: > 100 µM (inactive)
[53]
  GI50: > 100 µM (inactive)
[54]
  GI50: > 87.5 µM (inactive)
[55]
  GI50: > 87.1 µM (inactive)
[56]
  GI50: > 68.1 µM (inactive)
[57]
  GI50: > 100 µM (inactive)

## COc1cc2ccc3c4cc(OC)c(OC)cc4c[n+](C)c3c2cc1O
[1]
  GI50: > 100 µM (inactive)
[2]
  GI50: > 24.4 µM (inactive)
[3]
  GI50: > 100 µM (inactive)
[4]
  GI50: > 42.2 µM (inactive)
[5]
  GI50: > 100 µM (inactive)
[6]
  GI50: > 100 µM (inactive)
[7]
  GI50: > 90.8 µM (inactive)
[58]
  GI50: > 100 µM (inactive)
[8]
  GI50: 8.99 µM (inactive)
[9]
  GI50: 55.5 µM (inactive)
[10]
  GI50: > 100 µM (inactive)
[11]
  GI50: > 100 µM (inactive)
[12]
  GI50: > 100 µM (inactive)
[13]
  GI50: > 100 µM
[14]
  GI50: > 100 µM (inactive)
[15]
  GI50: > 100 µM (inactive)
[16]
  GI50: > 92.5 µM (inactive)
[17]
  GI50: > 100 µM (inactive)
[18]
  GI50: > 100 µM (inactive)
[19]
  GI50: > 100 µM (inactive)
[20]
  GI50: > 83.4 µM (inactive)
[21]
  GI50: > 100 µM (inactive)
[22]
  GI50: > 100 µM (inactive)
[23]
  GI50: > 73.8 µM (inactive)
[24]
  GI50: 12.6 µM (inactive)
[25]
  GI50: > 100 µM (inactive)
[26]
  GI50: > 100 µM (inactive)
[27]
  GI50: > 100 µM (inactive)
[28]
  GI50: > 100 µM (inactive)
[29]
  GI50: 9.16 µM (inactive)
[30]
  GI50: 37.1 µM (inactive)
[31]
  GI50: > 26.7 µM (inactive)
[32]
  GI50: 8.97 µM (inactive)
[33]
  GI50: 67.5 µM (inactive)
[34]
  GI50: > 81.8 µM (inactive)
[35]
  GI50: > 100 µM (inactive)
[36]
  GI50: 32.3 µM (inactive)
[37]
  GI50: > 100 µM (inactive)
[38]
  GI50: > 100 µM (inactive)
[39]
  GI50: 0.658 µM (active)
[41]
  GI50: > 100 µM (inactive)
[42]
  GI50: > 100 µM (inactive)
[43]
  GI50: > 100 µM (inactive)
[44]
  GI50: > 100 µM (inactive)
[45]
  GI50: > 100 µM (inactive)
[46]
  GI50: 2.1 µM (inactive)
[47]
  GI50: 3.91 µM (inactive)
[48]
  GI50: 15.2 µM (inactive)
[49]
  GI50: > 100 µM (inactive)
[51]
  GI50: > 100 µM (inactive)
[52]
  GI50: > 100 µM (inactive)
[53]
  GI50: 6.37 µM (inactive)
[54]
  GI50: > 100 µM (inactive)
[55]
  GI50: > 100 µM (inactive)
[56]
  GI50: > 100 µM (inactive)
[57]
  GI50: 24.7 µM (inactive)
